In series [1] the test system is wild-type male mice (C57BL/6) exposed to strong sound. As to the kind of experiment: Hearing ability by ABR after strong acoustic exposure. Format: in vivo, mouse. The note with it: vs non-administration group. The procedure:
Ndufs 4 KO mice (mutant mice due to the substitution of the second exon of the Ndufs 4 gene with Neo sandwiched between loxP sequences) were purchased from Jacson Laboratory. The genetic background of the mouse was C57BL/6, and 60 days old (body weight 10 to 13 g) was used. Compound #5 (1 mg/kg body weight/day) synthesized in Example 1 was orally administered to Ndufs 4 KO mice (administration group of Ndufs 4 KO mice, n=5), between 28 and 60 days of age, at 60 days of age, the hearing ability of the compound #5 administration group was evaluated by auditory brainstem response (ABR). As a control, the hearing ability of Nudfs 4 KO mice not received compound #5 (non-administration group of Ndufs 4 KO mice, n=4), wild type mice not received compound #5 (non-administration group of wild type mice, n=3) and Ndufs 4 hetero KO mice not received compound N #5 (non-administration group of Ndufs 4 hetero KO mice, n=4) was assessed by ABR at 60 days of age. In measuring the hearing ability, a mixture of ketamine (100 mg/kg body weight) and xylazine (20 mg/kg body weight) were anesthetized by intraperitoneal injection of mice. ABR was also analyzed using TDT System 3 workstation and BioSigRP software (Tucker-Davis Technologies). The averaging (1000 times) of the evoked response to the tone burst sound of each frequency (4, 8, 12, 16, and 32 kHz) was recorded. Stimuli sounds were presented at 5 dB intervals from each frequency, 100 dB SPL (Sound Pressure Level) to 10 dB SPL. The threshold value of ABR was set as the minimum sound pressure threshold value at which at least one waveform was confirmed with reproducibility.
Six male wild-type male mice (C57BL/6) were inoculated into each of three groups (non-administration group of wild type mice, administration (1) group of wild type mice and administration (10) group of wild type mice). Compound #5 (1 mg/kg body weight/day) was orally administered to the administration (1) group of wild type mice for 1 week, compound group #5 (10 mg/kg body weight/day) for 1 week. Compound #5 was not administered to the non-administration group of wild-type mice. After oral administration for 1 week, each group of mice was placed in a chamber for strong acoustic exposure in an awake state, and octave band noise of sound pressure level 100 dB SPL, 8 to 16 kHz was exposed for 2 hours. Noise was generated with a noise generator (SF-06, Random Noise Generator; manufactured by RION), then amplified with an amplifier (D-75A; manufactured by Crown), and the audio was filtered with an audio filter (Multifunction Filter; manufactured by NF Corporation). The frequency band was set and outputted by a speaker (2446H; manufactured by JBL) attached to the center of the ceiling in the chamber. The sound pressure level was measured and confirmed with a sound pressure measuring device (2250L; manufactured by Bruel & Kjar) for each experiment. Hearing power was evaluated by ABR according to the method described in item “6-1” of Example 6 before strong-acoustic exposure and 4 hours after exposure.

Series [2] concerns “m.1555A>G mutant” cells. The series can be described thus: Cytotoxicity level (extracellular LDH activity) of BSO-treated cells. Format: cell-based, human. As to conditions: BSO 100 μM, 48 hours. On the procedure:
(§1) In the following Examples 2, 3, and 5, “m.1555A>G mutant” cells were obtained by skin reproductive to a patient having “m.1555A>G mutation” to obtain dermal fibroblasts, then 10% Primary culture was carried out in DMEM (low glucose) culture solution (manufactured by Nacalai Tesque, Inc) containing FBS (Fetal bovine serum) under the condition of 5% CO2/20% O2, at 37° C. and isolated. In the following Examples 4 and 5, the inner ear culture was carried out in DMEM (high glucose) culture medium containing 10% FBS (Fetal bovine serum) under the condition of 5% CO2/20% O2, at 37° C.
[1] 2000 cells of “m.1555A>G mutant” cells were plated per well in a 96-well cell culture plate and cultured for 24 hours.
[2] Glutathione synthesis inhibitor BSO (L-Buthionine sulphoximine) (manufactured by Sigma-Aldrich) was mixed in the culture solution to be 100 μM and cultured for 24 hours (BSO-treated group). As a control, “m.1555A>G mutant” cells were cultured for 24 hours in the absence of BSO (control treatment group). For the BSO-treated group, the compound #5 synthesized in Example 1 was mixed into the culture solution so as to be at various concentrations (0.3, 1, 3, 10, and 30 μM) and cultured for 48 hours (N=4). As a control, the cells were cultured in the absence of compound #5 (DMSO was added so as to be 0.01%.). Cell survival level was measured by MTT assay using Cell Counting Kit-8 (manufactured by Dojindo Laboratories). That is, 100 μL of Cell Count Reagent SF was added to each well, incubated for 2 hours, and after 3 seconds of stirring with a microplate reader, the absorbance was measured at 450 nm (reference 750 nm). In addition, the level of cytotoxicity was detected by measuring lactate dehydrogenase (LDH) activity released extracellularly using Cytotoxicity LDH Assay Kit-WST (manufactured by Dojindo Laboratories). That is, 100 μL each of Working Solution prepared in each well was added, incubated for 30 minutes, Stop Solution was added in 50 μL each, and after stirring for 3 seconds with a microplate reader, the absorbance was measured at 490 nm (reference 750 nm).

Series [3] relates to “m.1555A>G mutant” cells. The series can be described thus: Amount of ATP production in cells derived from hearing loss patients. The series is classed as cell-based, human. The note with it: compound 10 μM, 12 hours. The procedure:
as §1
[1] Three thousand “m.1555A>G mutant” cells were seeded per well in a 96-well cell culture plate and cultured for 24 hours.
[2] Compound #5 synthesized in Example 1 was mixed into the culture solution to be 10 μM and cultured for 12 hours (compound-treated group). As a control, “m.1555A>G mutant” cells were cultured in a culture medium in the absence of compound #5 (control group) or in a culture medium containing 0.01% DMSO (DMSO-treated group) for 12 hours. The concentration of ATP in the culture solution was measured with “cellular” ATP assay reagent (manufactured by Toyo Binet).

Series [4] deals with “m.1555A>G mutant” cells. The series can be described thus: Cell survival level (MTT assay, Cell Counting Kit-8) of BSO-treated cells. The note with it: BSO 100 μM, 48 hours. Format: cell-based, human. The procedure:
as §1
[1] […]
[2] […] Cell survival level was measured by MTT assay using Cell Counting Kit-8 (manufactured by Dojindo Laboratories). That is, 100 μL of Cell Count Reagent SF was added to each well, incubated for 2 hours, and after 3 seconds of stirring with a microplate reader, the absorbance was measured at 450 nm (reference 750 nm). In addition, the level of cytotoxicity was detected by measuring lactate dehydrogenase (LDH) activity released extracellularly using Cytotoxicity LDH Assay Kit-WST (manufactured by Dojindo Laboratories). That is, 100 μL each of Working Solution prepared in each well was added, incubated for 30 minutes, Stop Solution was added in 50 μL each, and after stirring for 3 seconds with a microplate reader, the absorbance was measured at 490 nm (reference 750 nm).
For orientation: Formazan colour is commonly taken as a measure of viable cells.

Setting [5] is: 1 mg/kg body weight/day oral for 1 week.
[6] abbreviates: 10 mg/kg body weight/day oral for 1 week.

Turning to `O=C(CC(C(=O)O)c1c[nH]c2ccccc12)c1ccc(F)cc1F` (centres unmarked) [compound #5, 4-(2,4-Difluorophenyl)-2-(1H-indol-3-yl)-4-oxo-butanoic Acid], the “ABR threshold change before and after strong acoustic exposure” value in series [1] (setting [5]) and in series [1] (setting [6]) was “decreased” in each case. Further, the “ABR threshold value after 4 hours of strong acoustic exposure” value in series [1] (setting [5]) and in series [1] (setting [6]) was “lower” throughout. Moreover, the “ABR threshold values before strong acoustic exposure” value in series [1] (1 and 10 mg/kg body weight/day oral for 1 week) is reported as “no difference”. The “increase in the level of cytotoxicity” value is recorded as “a significant difference was observed” in series [2] (compound 3 μM, vs BSO-treated DMSO); “suppressed” in series [2] (compound at least 0.3 μM); “reduced to a level almost unchanged from that of the control group” in series [2] (compound at least 1 μM). Also, the “amount of ATP production” value in series [3] is “increases”. The “decrease in cell survival level” value in series [4] (compound 10 μM) is reported as “significantly suppressed”; in series [4] (compound at least 1 μM), “inhibited”.

Values taken from US11147796B2, “Agent for preventing or ameliorating hearing impairment” (Tohoku University, priority 2017, dated 2021).
